Among the data in patent US7087642B2 (priority 1999, dated 2006) are IC50 and Ki values, retold here.

Structures are written as SMILES. Where two headings read alike, the source gives them in different places.

One experiment relates to human PBMC T cells. The experiment in a line: cells. Type of experiment: cell-based. The following applies: read-out: T-cells (IC50).
The target in another experiment is IMPDH human type II (Homo sapiens, UniProt P12268). The experiment in a line: biochemical.
The test system of the next experiment is human PBMC B cells. The experiment in a line: cells. The experiment is classed as cell-based. Conditions: read-out: B-cells (IC50).

Turning to `COc1cc(NC(=O)Nc2cccc(CNC(=O)OC(C)CC#N)c2)ccc1-c1cnco1` (stereo not shown) [Compound 26], the IC50 is less than 100 nM with human PBMC T cells (Homo sapiens, 72 h) and less than 100 nM in the experiment with human PBMC B cells (Homo sapiens, 72 h). Besides, the Ki at IMPDH human type II (read-out: Ki) was less than 10 nM.

Turning to `CCC(CC#N)OC(=O)NCc1cccc(NC(=O)Nc2ccc(-c3cnco3)c(OC)c2)c1` (stereo not shown) [Compound 27], the IC50 in the experiment on human PBMC T cells (Homo sapiens, 72 h) was less than 100 nM; in the experiment on human PBMC B cells (Homo sapiens, 72 h) it was less than 100 nM. Further, at IMPDH human type II (read-out: Ki), the Ki was less than 10 nM.

For `COc1cc(NC(=O)Nc2cccc(CNC(=O)O[C@@H](C)CC#N)c2)ccc1-c1cnco1` [Compound 28], the IC50 in the experiment with human PBMC T cells and in the experiment with human PBMC B cells was 100 to 1000 nM throughout. Also, the Ki at IMPDH human type II (read-out: Ki) was less than 10 nM.

For the compound `COc1cc(NC(=O)Nc2cccc(CNC(=O)O[C@H](C)CC#N)c2)ccc1-c1cnco1` [Compound 29], the IC50 in the experiment on human PBMC T cells and in the experiment with human PBMC B cells was less than 100 nM in each case. On IMPDH human type II (read-out: Ki), the inhibition constant Ki is less than 10 nM.

Regarding `COc1cc(NC(=O)Nc2cccc(CNC(=O)O[C@@H](C)CN(C)Cc3ccco3)c2)ccc1-c1cnco1` [Compound 30], the IC50 was more than 1000 nM with human PBMC T cells (Homo sapiens, 72 h) and 100 to 1000 nM in the experiment on human PBMC B cells (Homo sapiens, 72 h). Also, the Ki at IMPDH human type II (read-out: Ki) is less than 10 nM.

For the compound `CCCC(CC#N)OC(=O)NCc1cccc(NC(=O)Nc2ccc(-c3cnco3)c(OC)c2)c1` (stereo not shown) [Compound 32], the half-inhibitory concentration (IC50) was 100 to 1000 nM in the experiment with human PBMC T cells (Homo sapiens, 72 h) and less than 100 nM in the experiment with human PBMC B cells (Homo sapiens, 72 h). Moreover, the Ki at IMPDH human type II (read-out: Ki) was less than 10 nM.

In the case of `CCCCC(CC#N)OC(=O)NCc1cccc(NC(=O)Nc2ccc(-c3cnco3)c(OC)c2)c1` (stereo not shown) [Compound 33], the IC50 lay within 100 to 1000 nM in the experiment with human PBMC T cells (Homo sapiens, 72 h) and 100 to 1000 nM in the experiment with human PBMC B cells (Homo sapiens, 72 h). Besides, the Ki on IMPDH human type II (read-out: Ki) was less than 10 nM.

For the compound `CNCCC(OC(=O)NCc1cccc(NC(=O)Nc2ccc(-c3cnco3)c(OC)c2)c1)c1ccccc1` (stereo not shown) [Compound 34], the 50% inhibitory concentration (IC50) in the experiment on human PBMC T cells (Homo sapiens, 72 h) was more than 1000 nM; in the experiment on human PBMC B cells (Homo sapiens, 72 h) it was 100 to 1000 nM. Also, the inhibitory constant (Ki) at IMPDH human type II (read-out: Ki) is less than 10 nM.

For the compound `COc1cc(NC(=O)Nc2cccc(CNC(=O)OC(CCN(C)C)c3ccccc3)c2)ccc1-c1cnco1` (stereo not shown) [Compound 35], the IC50 with human PBMC T cells (Homo sapiens, 72 h) is 100 to 1000 nM; in the experiment on human PBMC B cells (Homo sapiens, 72 h), 100 to 1000 nM. Also, at IMPDH human type II (read-out: Ki), the Ki was less than 10 nM.

In the case of `COc1cc(NC(=O)Nc2cccc(CNC(=O)OC(CC[N+](C)(C)C)c3ccccc3)c2)ccc1-c1cnco1` (stereo not shown) [Compound 36], the IC50 is more than 1000 nM with human PBMC T cells (Homo sapiens, 72 h) and more than 1000 nM in the experiment on human PBMC B cells (Homo sapiens, 72 h). This compound also yielded a Ki at IMPDH human type II of less than 10 nM.

With `CCN(CC)CCC(OC(=O)NCc1cccc(NC(=O)Nc2ccc(-c3cnco3)c(OC)c2)c1)C(F)(F)F` (stereo not shown) [Compound 37], the IC50 lay in the range of 100 to 1000 nM in the experiment with human PBMC T cells (Homo sapiens, 72 h) and 100 to 1000 nM with human PBMC B cells (Homo sapiens, 72 h). Moreover, the Ki at IMPDH human type II (read-out: Ki) was less than 10 nM.

As for `CCCC(COC)OC(=O)NCc1cccc(NC(=O)Nc2ccc(-c3cnco3)c(OC)c2)c1` (stereo not shown) [Compound 38], the IC50 with human PBMC T cells (Homo sapiens, 72 h) was 100 to 1000 nM; in the experiment with human PBMC B cells (Homo sapiens, 72 h) it was 100 to 1000 nM. For the same compound, the Ki on IMPDH human type II (read-out: Ki) was less than 10 nM.

As for `COc1cc(NC(=O)Nc2cccc(CNC(=O)O[C@H](CCN(C)C)c3ccccc3)c2)ccc1-c1cnco1` [Compound 39], the IC50 in the experiment on human PBMC T cells and in the experiment on human PBMC B cells was 100 to 1000 nM in each case. Besides, the Ki on IMPDH human type II (read-out: Ki) is less than 10 nM.

Turning to `COc1cc(NC(=O)Nc2cccc(CNC(=O)OC(CC#N)C(C)C)c2)ccc1-c1cnco1` (stereo not shown) [Compound 40], the IC50 in the experiment on human PBMC T cells (Homo sapiens, 72 h) is more than 1000 nM; in the experiment with human PBMC B cells (Homo sapiens, 72 h), 100 to 1000 nM. In addition, the Ki at IMPDH human type II (read-out: Ki) is less than 10 nM.

Turning to `COCC(C)OC(=O)NCc1cccc(NC(=O)Nc2ccc(-c3cnco3)c(OC)c2)c1` (stereo not shown) [Compound 41], the IC50 was in the range of 100 to 1000 nM with human PBMC T cells (Homo sapiens, 72 h) and 100 to 1000 nM in the experiment on human PBMC B cells (Homo sapiens, 72 h). The Ki at IMPDH human type II (read-out: Ki) was less than 10 nM.

Take `CCC(COC)OC(=O)NCc1cccc(NC(=O)Nc2ccc(-c3cnco3)c(OC)c2)c1` (stereo not shown) [Compound 42]: the IC50 with human PBMC T cells (Homo sapiens, 72 h) is 100 to 1000 nM; in the experiment with human PBMC B cells (Homo sapiens, 72 h) it was 100 to 1000 nM. In addition, on IMPDH human type II (read-out: Ki), the Ki is less than 10 nM.

For the compound `CCC(CCO)OC(=O)NCc1cccc(NC(=O)Nc2ccc(-c3cnco3)c(OC)c2)c1` (stereo not shown) [Compound 43], the IC50 in the experiment with human PBMC T cells (Homo sapiens, 72 h) lay in the range of 100 to 1000 nM; with human PBMC B cells (Homo sapiens, 72 h), 100 to 1000 nM. For the same compound, on IMPDH human type II (read-out: Ki), the Ki was less than 10 nM.

For `CCC(CCCO)OC(=O)NCc1cccc(NC(=O)Nc2ccc(-c3cnco3)c(OC)c2)c1` (stereo not shown) [Compound 44], the IC50 lay within 100 to 1000 nM with human PBMC T cells (Homo sapiens, 72 h) and 100 to 1000 nM in the experiment with human PBMC B cells (Homo sapiens, 72 h). In addition, the Ki at IMPDH human type II (read-out: Ki) is less than 10 nM.

For the compound `COc1cc(NC(=O)Nc2cccc(CNC(=O)OC(CCO)CCC#N)c2)ccc1-c1cnco1` (stereo not shown) [Compound 45], the IC50 is 100 to 1000 nM with human PBMC T cells (Homo sapiens, 72 h) and 100 to 1000 nM with human PBMC B cells (Homo sapiens, 72 h). Moreover, the Ki at IMPDH human type II (read-out: Ki) was less than 10 nM.

`COc1cc(NC(=O)Nc2cccc(CNC(=O)OC(CC#N)C(C)(C)C)c2)ccc1-c1cnco1` (stereo not shown) [Compound 46]: the IC50 in the experiment on human PBMC T cells (Homo sapiens, 72 h) lay within 100 to 1000 nM; with human PBMC B cells (Homo sapiens, 72 h), 100 to 1000 nM. In addition, the Ki at IMPDH human type II (read-out: Ki) is less than 10 nM.

As for `COc1cc(NC(=O)Nc2cccc(CNC(=O)O[C@H](C)CCC#N)c2)ccc1-c1cnco1` [Compound 47], the IC50 was in the range of 100 to 1000 nM in the experiment with human PBMC T cells (Homo sapiens, 72 h) and 100 to 1000 nM with human PBMC B cells (Homo sapiens, 72 h). In addition, the inhibitory constant (Ki) on IMPDH human type II (read-out: Ki) is less than 10 nM.

As for `CCC(CC#N)OC(=O)N[C@@H](C)c1cccc(NC(=O)Nc2ccc(C#N)c(Cl)c2)c1` (stereo partly shown) [Compound 183], the IC50 in the experiment on human PBMC T cells (Homo sapiens, 72 h) was in the range of 100 to 1000 nM; in the experiment with human PBMC B cells (Homo sapiens, 72 h) it was 100 to 1000 nM.

In the case of `COc1cc(NC(=O)Nc2cccc([C@H](C)NC(=O)OC3CCOC3)c2)ccc1C#N` (stereo partly shown) [Compound 184], the IC50 was 100 to 1000 nM with human PBMC T cells (Homo sapiens, 72 h) and 100 to 1000 nM with human PBMC B cells (Homo sapiens, 72 h).

In general, IC50 refers to the concentration that gives 50% inhibition. The Ki is a measure of affinity in units of concentration, obtained from inhibition or displacement.
